{"source": "paper PMC10732257", "about": "(Oncotarget, 2023)", "key": {"CDK13/cyclin K": {"molecular_target": "T1, CDK13/cyclin K (Homo sapiens, UniProt Q14004)", "T1 construct": "purchased Eurofins Pharma Discovery Services UK Ltd", "T1 sequence (Q14004 whole entry)": "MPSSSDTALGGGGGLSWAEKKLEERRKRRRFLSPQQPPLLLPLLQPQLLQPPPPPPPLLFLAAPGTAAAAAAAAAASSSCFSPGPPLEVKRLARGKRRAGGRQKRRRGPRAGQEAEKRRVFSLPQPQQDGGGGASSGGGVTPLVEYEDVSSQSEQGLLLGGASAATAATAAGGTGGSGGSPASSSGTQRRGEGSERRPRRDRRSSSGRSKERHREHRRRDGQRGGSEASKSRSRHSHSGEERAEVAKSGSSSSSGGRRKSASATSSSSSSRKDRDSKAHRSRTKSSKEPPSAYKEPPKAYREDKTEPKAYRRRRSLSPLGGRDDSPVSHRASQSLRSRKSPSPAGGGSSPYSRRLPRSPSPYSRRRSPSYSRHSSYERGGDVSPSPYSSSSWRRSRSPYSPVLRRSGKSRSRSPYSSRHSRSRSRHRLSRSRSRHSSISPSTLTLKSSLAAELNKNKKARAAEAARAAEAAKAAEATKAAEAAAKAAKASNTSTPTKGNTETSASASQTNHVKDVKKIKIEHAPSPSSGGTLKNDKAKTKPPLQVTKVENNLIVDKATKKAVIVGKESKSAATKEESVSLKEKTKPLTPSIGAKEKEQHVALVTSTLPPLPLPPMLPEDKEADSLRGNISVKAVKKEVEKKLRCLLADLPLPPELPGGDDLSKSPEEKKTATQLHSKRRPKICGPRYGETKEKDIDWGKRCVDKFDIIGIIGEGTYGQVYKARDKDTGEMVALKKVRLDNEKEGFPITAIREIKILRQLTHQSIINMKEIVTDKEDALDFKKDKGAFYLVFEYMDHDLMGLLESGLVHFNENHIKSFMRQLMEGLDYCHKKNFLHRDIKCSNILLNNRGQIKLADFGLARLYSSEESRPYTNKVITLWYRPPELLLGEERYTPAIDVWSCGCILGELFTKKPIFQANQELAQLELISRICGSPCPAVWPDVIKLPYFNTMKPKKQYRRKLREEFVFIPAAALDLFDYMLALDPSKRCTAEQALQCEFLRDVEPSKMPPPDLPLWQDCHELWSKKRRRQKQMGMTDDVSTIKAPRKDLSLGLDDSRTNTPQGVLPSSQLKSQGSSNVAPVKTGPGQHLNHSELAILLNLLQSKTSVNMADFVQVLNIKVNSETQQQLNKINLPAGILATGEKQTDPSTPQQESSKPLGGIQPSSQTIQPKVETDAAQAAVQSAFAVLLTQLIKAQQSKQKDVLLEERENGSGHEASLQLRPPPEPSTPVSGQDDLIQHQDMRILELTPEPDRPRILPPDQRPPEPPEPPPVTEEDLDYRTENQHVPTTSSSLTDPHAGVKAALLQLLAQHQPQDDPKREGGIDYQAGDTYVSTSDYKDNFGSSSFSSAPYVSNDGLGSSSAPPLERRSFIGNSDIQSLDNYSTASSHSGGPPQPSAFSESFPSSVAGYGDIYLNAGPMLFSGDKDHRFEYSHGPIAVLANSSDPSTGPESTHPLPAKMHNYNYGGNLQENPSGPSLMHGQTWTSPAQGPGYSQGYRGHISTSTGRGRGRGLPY", "T1 sequence (O75909 whole entry partner)": "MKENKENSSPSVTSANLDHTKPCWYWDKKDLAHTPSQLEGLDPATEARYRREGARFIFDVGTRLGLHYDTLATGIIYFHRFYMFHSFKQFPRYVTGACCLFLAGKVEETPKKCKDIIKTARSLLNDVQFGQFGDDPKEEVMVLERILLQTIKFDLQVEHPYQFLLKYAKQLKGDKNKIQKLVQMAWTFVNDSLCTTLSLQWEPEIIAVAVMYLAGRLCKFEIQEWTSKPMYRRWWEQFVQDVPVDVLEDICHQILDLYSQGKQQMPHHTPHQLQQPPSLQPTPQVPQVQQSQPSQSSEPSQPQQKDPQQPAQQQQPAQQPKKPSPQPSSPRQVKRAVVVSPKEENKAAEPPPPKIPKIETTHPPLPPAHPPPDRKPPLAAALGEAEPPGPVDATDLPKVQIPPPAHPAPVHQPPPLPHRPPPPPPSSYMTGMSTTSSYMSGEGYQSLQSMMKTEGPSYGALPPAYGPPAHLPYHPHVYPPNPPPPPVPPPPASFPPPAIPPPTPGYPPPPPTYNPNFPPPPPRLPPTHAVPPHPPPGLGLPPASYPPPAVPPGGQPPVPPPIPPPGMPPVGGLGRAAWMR", "assay": "CDK family off-target kinase activity (Eurofins)", "assay_type": "biochemical", "excerpt": "The pharmacodynamic and mechanistic foundation for the\nCDK9 inhibitor for the treatment of hematologic malignancies\nSupplementary Table 1: Inhibitory action of GFH009 on other CDK family members\nVarious CDK/ Remaining enzymatic activity (%) after\ncognate cyclin pairs tested exposure to GFH009 at a concentration of Selectivity vs. CDK9\n(also on this page, place not known: www.oncotarget.com Oncotarget, Materials Supplementary)\n(1 picture or pasted object on this page, not shown here)"}, "5-HT1A (serotonin)": {"molecular_target": "T2, 5-HT1A (serotonin) (Homo sapiens, UniProt P08908)", "T2 construct": "Wuxi AppTech (Shanghai, China)", "T2 sequence (P08908 whole entry, species assumed)": "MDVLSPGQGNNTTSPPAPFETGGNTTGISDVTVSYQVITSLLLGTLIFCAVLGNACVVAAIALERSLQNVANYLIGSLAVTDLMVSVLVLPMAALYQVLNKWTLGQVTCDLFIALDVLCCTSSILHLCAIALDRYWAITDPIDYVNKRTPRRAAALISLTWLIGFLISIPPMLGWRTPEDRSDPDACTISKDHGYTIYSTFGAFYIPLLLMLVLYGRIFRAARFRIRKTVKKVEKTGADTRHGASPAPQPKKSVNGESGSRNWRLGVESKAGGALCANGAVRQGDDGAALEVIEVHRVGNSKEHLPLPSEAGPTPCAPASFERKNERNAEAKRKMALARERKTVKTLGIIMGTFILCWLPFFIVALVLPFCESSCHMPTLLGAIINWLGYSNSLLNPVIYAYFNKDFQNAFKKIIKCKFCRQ", "assay": "GPCR agonist action testing", "assay_type": "cell-based", "excerpt": "(§1) Supplementary Table 2: Results of GPCR agonist action testing of GFH009 administered at a\n(§2) Agonist action against GPCR type shown below\n(§3) Target % Agonist Effect @ Max Dose\n(§4) M1 (muscarinic Ach) −2.18\n(§5) M2 (muscarinic Ach) −0.63"}, "AD2 (adenosine)": {"tested_on": "AD2 (adenosine)", "assay": "GPCR agonist action testing", "assay_type": "cell-based", "excerpt": "as §1, §2, §3, §4, §5"}, "CB1 (cannabinoid)": {"molecular_target": "T3, CB1 (cannabinoid) (Homo sapiens, UniProt P21554)", "T3 construct": "Wuxi AppTech (contract laboratory)", "assay": "GPCR agonist action testing", "assay_type": "cell-based", "excerpt": "as §1, §2, §3, §4, §5"}, "CB2 (cannabinoid)": {"molecular_target": "T4, CB2 (cannabinoid) (Homo sapiens, UniProt P34972)", "T4 construct": "Wuxi AppTech (contract laboratory)", "assay": "GPCR agonist action testing", "assay_type": "cell-based", "excerpt": "as §1, §2, §3, §4, §5"}, "D1 (dopamine)": {"molecular_target": "T5, D1 (dopamine) (Homo sapiens, UniProt P21728)", "T5 construct": "Wuxi AppTech (contract laboratory)", "assay": "GPCR agonist action testing", "assay_type": "cell-based", "excerpt": "as §1, §2, §3, §4, §5"}, "D2 (dopamine)": {"molecular_target": "T6, D2 (dopamine) (Homo sapiens, UniProt P14416)", "T6 construct": "Wuxi AppTech (contract laboratory)", "T6 sequence (P14416 whole entry)": "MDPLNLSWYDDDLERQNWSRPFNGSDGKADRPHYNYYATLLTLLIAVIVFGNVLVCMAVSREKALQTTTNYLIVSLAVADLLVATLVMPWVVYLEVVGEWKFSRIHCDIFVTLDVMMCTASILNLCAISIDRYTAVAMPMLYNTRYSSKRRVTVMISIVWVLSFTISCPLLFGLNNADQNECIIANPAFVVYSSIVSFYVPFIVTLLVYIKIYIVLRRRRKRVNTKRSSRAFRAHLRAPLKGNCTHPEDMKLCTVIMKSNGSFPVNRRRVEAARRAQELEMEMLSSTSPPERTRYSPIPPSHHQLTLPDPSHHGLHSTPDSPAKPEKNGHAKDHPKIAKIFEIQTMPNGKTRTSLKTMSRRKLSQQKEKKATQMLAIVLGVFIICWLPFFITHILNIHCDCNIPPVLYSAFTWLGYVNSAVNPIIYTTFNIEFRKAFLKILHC", "assay": "GPCR agonist action testing", "assay_type": "cell-based", "excerpt": "as §1, §2, §3, §4, §5"}, "ETA (endothelin)": {"molecular_target": "T7, ETA (endothelin) (Homo sapiens, UniProt P25101)", "T7 construct": "Wuxi AppTech (contract laboratory)", "assay": "GPCR agonist action testing", "assay_type": "cell-based", "excerpt": "as §1, §2, §3, §4, §5"}, "M3 (muscarinic Ach)": {"molecular_target": "M3 (muscarinic Ach) (Homo sapiens, UniProt P20309)", "assay": "GPCR agonist action testing", "assay_type": "cell-based", "excerpt": "as §1, §2, §3, §4, §5"}, "V1A (vasopressin)": {"molecular_target": "V1A (vasopressin) (Homo sapiens, UniProt P37288)", "assay": "GPCR agonist action testing", "assay_type": "cell-based", "excerpt": "as §1, §2, §3, §4, §5"}, "a1a (adrenoceptor)": {"molecular_target": "T8, a1a (adrenoceptor) (Homo sapiens, UniProt P35348)", "T8 construct": "Wuxi AppTech (contract laboratory)", "T8 sequence (P35348 whole entry)": "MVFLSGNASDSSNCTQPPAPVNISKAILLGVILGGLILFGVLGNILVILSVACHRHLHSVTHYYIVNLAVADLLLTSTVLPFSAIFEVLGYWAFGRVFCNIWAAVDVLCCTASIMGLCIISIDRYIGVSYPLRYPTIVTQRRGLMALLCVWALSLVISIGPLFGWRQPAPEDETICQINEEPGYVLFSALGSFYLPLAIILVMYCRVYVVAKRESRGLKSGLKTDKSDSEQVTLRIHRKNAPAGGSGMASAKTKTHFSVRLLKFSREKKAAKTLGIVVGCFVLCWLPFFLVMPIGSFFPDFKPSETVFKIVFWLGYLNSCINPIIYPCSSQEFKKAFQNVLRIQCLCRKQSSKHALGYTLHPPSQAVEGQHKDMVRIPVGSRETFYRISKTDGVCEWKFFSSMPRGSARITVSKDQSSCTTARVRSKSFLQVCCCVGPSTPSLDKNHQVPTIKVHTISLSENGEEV", "assay": "GPCR agonist action testing", "assay_type": "cell-based", "excerpt": "as §1, §2, §3, §4, §5"}, "a2a (adrenoceptor)": {"molecular_target": "T9, a2a (adrenoceptor) (Homo sapiens, UniProt P08913)", "T9 construct": "Wuxi AppTech (contract laboratory)", "T9 sequence (P08913 whole entry)": "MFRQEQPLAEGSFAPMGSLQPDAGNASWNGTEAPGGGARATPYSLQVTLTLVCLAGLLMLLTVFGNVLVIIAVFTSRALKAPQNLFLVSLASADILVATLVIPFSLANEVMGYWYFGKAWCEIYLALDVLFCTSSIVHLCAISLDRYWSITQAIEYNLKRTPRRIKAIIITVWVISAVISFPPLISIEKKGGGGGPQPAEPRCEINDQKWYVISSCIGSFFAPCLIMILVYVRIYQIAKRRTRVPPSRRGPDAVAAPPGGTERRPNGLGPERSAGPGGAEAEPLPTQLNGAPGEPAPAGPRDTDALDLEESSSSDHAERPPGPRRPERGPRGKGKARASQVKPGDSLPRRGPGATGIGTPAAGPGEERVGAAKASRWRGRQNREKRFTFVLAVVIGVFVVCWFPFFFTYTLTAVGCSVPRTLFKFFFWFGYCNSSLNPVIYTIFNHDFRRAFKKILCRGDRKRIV", "assay": "GPCR agonist action testing", "assay_type": "cell-based", "excerpt": "as §1, §2, §3, §4, §5"}, "b1 (adrenoceptor)": {"molecular_target": "T10, b1 (adrenoceptor) (Homo sapiens, UniProt P08588)", "T10 construct": "Wuxi AppTech (contract laboratory)", "assay": "GPCR agonist action testing", "assay_type": "cell-based", "excerpt": "as §1, §2, §3, §4, §5"}, "op-d (opioid)": {"molecular_target": "op-d (opioid) (Homo sapiens, UniProt P41143)", "assay": "GPCR agonist action testing", "assay_type": "cell-based", "excerpt": "as §1, §2, §3, §4, §5"}, "op-k (opioid)": {"molecular_target": "op-k (opioid) (Homo sapiens, UniProt P41145)", "sequence (P41145 whole entry)": "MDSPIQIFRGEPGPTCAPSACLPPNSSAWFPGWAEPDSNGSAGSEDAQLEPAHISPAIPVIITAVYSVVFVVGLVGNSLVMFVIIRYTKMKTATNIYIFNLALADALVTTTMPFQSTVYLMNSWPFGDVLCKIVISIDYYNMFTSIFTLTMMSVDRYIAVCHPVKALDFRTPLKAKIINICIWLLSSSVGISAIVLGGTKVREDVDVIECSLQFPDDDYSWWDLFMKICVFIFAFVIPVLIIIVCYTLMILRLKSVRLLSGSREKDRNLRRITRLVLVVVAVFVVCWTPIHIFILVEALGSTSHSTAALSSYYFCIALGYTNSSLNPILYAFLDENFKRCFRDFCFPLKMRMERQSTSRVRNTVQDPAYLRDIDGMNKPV", "assay": "GPCR agonist action testing", "assay_type": "cell-based", "excerpt": "as §1, §2, §3, §4, §5"}, "op-m (opioid)": {"molecular_target": "op-m (opioid) (Homo sapiens, UniProt P35372)", "sequence (P35372 whole entry)": "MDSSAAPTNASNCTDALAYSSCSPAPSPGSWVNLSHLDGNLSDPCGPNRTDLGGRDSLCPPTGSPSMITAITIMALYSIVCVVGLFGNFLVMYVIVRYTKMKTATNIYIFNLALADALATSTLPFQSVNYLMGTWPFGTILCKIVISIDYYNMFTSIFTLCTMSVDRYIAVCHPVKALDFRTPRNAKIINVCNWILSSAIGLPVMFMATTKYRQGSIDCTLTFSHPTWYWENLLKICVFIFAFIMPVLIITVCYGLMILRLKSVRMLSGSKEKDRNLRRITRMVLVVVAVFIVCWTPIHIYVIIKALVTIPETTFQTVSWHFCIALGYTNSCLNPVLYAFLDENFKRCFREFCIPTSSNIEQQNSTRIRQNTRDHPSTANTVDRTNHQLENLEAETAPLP", "assay": "GPCR agonist action testing", "assay_type": "cell-based", "excerpt": "as §1, §2, §3, §4, §5"}, "MV-4-11 xenograft": {"tested_on": "MV-4-11 xenograft", "assay": "Anti-tumor efficacy in subcutaneous MV-4-11 xenograft model", "assay_type": "in vivo, female BALB/c nude mice", "method": "Figure 6 Anti-tumor efficacy of GFH009 in MV-4-11 xenograft model. MV-4-11 xenograft in female BALB/c nude mice were treated with GFH009 or enitociclib at the indicated doses (n = 8 mice per group). Results are expressed as mean ± SEM. ^* P < 0.05, ^**** P < 0.0001, two-way ANOVA with Dunnett’s multiple comparisons test analysis compared to Vehicle control group.\nIn vivo studies of tumor suppression were conducted in female BALB/c nude mice (Beijing Vital River Laboratory Animal Technology Co, Ltd., Changping, Beijing, China) bearing MV-4-11 xenografts (ATCC, Rockville, MD, USA). Each mouse was inoculated subcutaneously into the right dorsal-region with 5.0 × 10^6 cultured MV-4-11 cells in a total volume of 0.2 ml solution and allowed to develop xenograft tumors. Once tumor size had reached […], mice were divided into groups to receive 1 of 8 different treatment preparations dosed intravenously via the tail vein (Table 2). […] Enitociclib was administered as a 1.0 mg/mL solution in ultrapure water with 5% DMSO. Vehicle control was 50 mM PBS with no dissolved treatment drug.\nAnimals dosed BIW were given treatments on 2 consecutive days. Weights were recorded for each mouse every day and tumor volumes assessed 3 times a week. Total treatment administration occurred across 3 consecutive weeks.\nSubcutaneous tumor volume (TV) was calculated as TV = (L × W^2)/2, where L was the length and W was the width of the tumor [11]. […] TGI was calculated as TGI (%) = (1 – avTi-0/ avCi-0)) × 100, where avTi-0 is the mean TV of the treatment group on a given day minus the mean TV of this treatment group on the day of group assignment, and avCi-0 is the mean TV of the vehicle control group on a given day minus the mean TV of the vehicle control group on the day of group assignment.\nTumor volume data was subjected to a base-10 logarithmic transformation and subsequent comparisons of TV across groups was made using two-way ANOVA (Dunnett’s multiple comparisons test). All plotting and statistical analyses were conducted using GraphPad Prism 6.00 (GraphPad Software)."}, "MV-4-11 xenograft tumor": {"tested_on": "MV-4-11 xenograft tumor", "assay": "Western blot of CDK9-dependent protein expression in MV-4-11 xenograft tumor tissue", "assay_type": "in vivo, female BALB/c nude mice", "conditions": "single dose 15 mg/kg i.v.", "method": "Figure 9 Effect of GFH009 treatment on CDK9-dependent protein expression in vivo. Female BALB/c nude mice were subcutaneously inoculated with 5 × 10^6 MV-4-11 cells. […] The mice were euthanized, and tumor tissues were collected at different times after administration as indicated for western blot analysis. Three individual mice were selected from GFH009 treatment group.\nIn vivo protein expression was assessed via SDS-PAGE and western blotting of samples from female BALB/c nude mice following treatment with GHF009. […] When tumors reached approximately 600 mm^3 (Day 25), animals were randomly divided into two groups. Group 1 received a single dose of vehicle control. […] Both were administered via tail vein injection.\nAll mice were euthanized, and tumor tissues collected at required times following administration. Group 1 control animals were euthanized at 2 hours post-administration. Group 2 animals were euthanized at 1, 2, 4, 8, 24, and 48 hours after administration. Tumor tissue was harvested, weighed, and flash frozen in liquid nitrogen. Total proteins were extracted and analyzed by western blot to determine expression of phospho-Rpb1 CTD Ser2, RPB1, MYC, MCL-1, Cleaved Caspase-3, and vinculin. Image Studio V5.0 was used to analyze all western blot membrane images."}}}
{"smiles": "COC[C@@H](C)NC1CCC(Nc2cc(-c3csc(NCC4(C#N)CCOCC4)n3)c(Cl)cn2)CC1", "note": "(stereo partly shown) [GFH009]", "values": [{"measurement": "Selectivity vs. CDK9", "setting": "CDK13/cyclin K", "result": "> 1000"}, {"measurement": "Remaining enzymatic activity (%) after exposure to GFH009", "setting": "CDK13/cyclin K; 1 µM", "result": 93, "unit": "%"}, {"measurement": "Remaining enzymatic activity (%) after exposure to GFH009", "setting": "CDK13/cyclin K; 10 µM", "result": 88, "unit": "%"}, {"measurement": "% Agonist Effect @ Max Dose (12 µM)", "setting": "5-HT1A (serotonin)", "result": "−0.33", "unit": "%"}, {"measurement": "% Agonist Effect @ Max Dose (12 µM)", "setting": "AD2 (adenosine)", "result": 21.7, "unit": "%"}, {"measurement": "% Agonist Effect @ Max Dose (12 µM)", "setting": "CB1 (cannabinoid)", "result": "−0.7", "unit": "%"}, {"measurement": "% Agonist Effect @ Max Dose (12 µM)", "setting": "CB2 (cannabinoid)", "result": 0.23, "unit": "%"}, {"measurement": "% Agonist Effect @ Max Dose (12 µM)", "setting": "D1 (dopamine)", "result": "−1.49", "unit": "%"}, {"measurement": "% Agonist Effect @ Max Dose (12 µM)", "setting": "D2 (dopamine)", "result": 3.66, "unit": "%"}, {"measurement": "% Agonist Effect @ Max Dose (12 µM)", "setting": "ETA (endothelin)", "result": "−0.08", "unit": "%"}, {"measurement": "% Agonist Effect @ Max Dose (12 µM)", "setting": "M3 (muscarinic Ach)", "result": 0.49, "unit": "%"}, {"measurement": "% Agonist Effect @ Max Dose (12 µM)", "setting": "V1A (vasopressin)", "result": 0.59, "unit": "%"}, {"measurement": "% Agonist Effect @ Max Dose (12 µM)", "setting": "a1a (adrenoceptor)", "result": 4.58, "unit": "%"}, {"measurement": "% Agonist Effect @ Max Dose (12 µM)", "setting": "a2a (adrenoceptor)", "result": "−3.87", "unit": "%"}, {"measurement": "% Agonist Effect @ Max Dose (12 µM)", "setting": "b1 (adrenoceptor)", "result": 4.53, "unit": "%"}, {"measurement": "% Agonist Effect @ Max Dose (12 µM)", "setting": "op-d (opioid)", "result": "−0.98", "unit": "%"}, {"measurement": "% Agonist Effect @ Max Dose (12 µM)", "setting": "op-k (opioid)", "result": 21.57, "unit": "%"}, {"measurement": "% Agonist Effect @ Max Dose (12 µM)", "setting": "op-m (opioid)", "result": 0.71, "unit": "%"}, {"measurement": "Tumor total volume at 10.0 mg/kg", "setting": "MV-4-11 xenograft; 10.0 mg/kg i.v., through day 29", "result": "consistent reduction in total volume"}, {"measurement": "Tumor growth (total volume) compared to the vehicle control", "setting": "MV-4-11 xenograft; i.v., GFH009 maleate 2.5, 5.0, 10.0 mg/kg QW or BIW, enitociclib 10.0 mg/kg QW, 3 weeks", "result": "tumor growth inhibition"}, {"measurement": "Levels of MCL-1 and MYC in tumor", "setting": "MV-4-11 xenograft tumor; from 2 hours through 48-hour time point", "result": "began to decrease significantly"}, {"measurement": "Expression of p-Rpb1 phospho-Ser2 in tumor", "setting": "MV-4-11 xenograft tumor; from one hour through 48 hours post-administration", "result": "began to decrease significantly"}]}
